# Assay results as given in ChEMBL document CHEMBL1201862, “PubChem BioAssay data set” (2004).
# The source made the active and inactive calls.
# Columns and labels:
# [1] = growth suppression of beta-catenin-knockout colon cells, dose response, cell-based, HCT116, human colon tumor (AID 1045); format: functional;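 also: HCT116 colon tumor cells with beta catenin knocked out; cells exposed to compound for 60 hours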
# Vero = test: cells; format: functional; conditions: Chlorocebus sabaeus
# [2] = growth suppression of PTEN-null colon cells, dose response, cell-based, HCT116 PTEN knockout (AID 1047); format: functional;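 also: HCT116 colon tumor cells with PTEN knocked out; cells exposed to compound for 60 hours before readout; potency for loss of cell viability measured by luminescence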
# INS1 = test: beta cell apoptosis inhibitors, cytokine rescue, dose response, luminescence, retest (AID 449756); format: functional, cell-based; conditions: Rattus norvegicus;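 also: cell death triggered by IL-1 beta plus TNF-alpha plus IFN-gamma mixture; protective hits raise ATP signal compared with cytokine alone wells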
# [3] = molecular target: Voltage-dependent T-type calcium channel subunit alpha-1H (Homo sapiens, UniProt O95180); format: functional;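 also: channel activity triggered by adding a high calcium stimulation buffer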
# [4] = molecular target: T1, Sentrin-specific protease 8 (Homo sapiens, UniProt Q96LD8); format: functional;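 also: luminescence read-out of SENP8 inhibition, dose-response confirmation following an ultra-high-throughput screen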
# T1 sequence (Q96LD8 whole entry): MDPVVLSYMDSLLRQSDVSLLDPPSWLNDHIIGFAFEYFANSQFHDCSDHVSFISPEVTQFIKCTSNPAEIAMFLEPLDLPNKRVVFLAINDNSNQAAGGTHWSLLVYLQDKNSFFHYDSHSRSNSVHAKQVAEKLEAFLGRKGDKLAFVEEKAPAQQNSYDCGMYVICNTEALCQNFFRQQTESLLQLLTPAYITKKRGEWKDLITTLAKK
# Caspase-3 = molecular target: T2, Caspase-3 (Homo sapiens, UniProt P42574); format: functional;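 also: Dose-response selectivity test against caspase-3 for candidate inhibitors of sentrin-specific proteases (SENPs)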
# T2 sequence (P42574 whole entry): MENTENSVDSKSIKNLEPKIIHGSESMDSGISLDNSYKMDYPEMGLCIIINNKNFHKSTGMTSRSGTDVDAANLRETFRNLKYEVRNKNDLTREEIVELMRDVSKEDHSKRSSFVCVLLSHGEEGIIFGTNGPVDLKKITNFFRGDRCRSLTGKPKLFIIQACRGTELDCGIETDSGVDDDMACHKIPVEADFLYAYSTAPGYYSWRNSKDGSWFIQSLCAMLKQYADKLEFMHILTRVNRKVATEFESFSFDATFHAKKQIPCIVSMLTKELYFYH
# [5] = molecular target: T3, Sentrin-specific protease 7 (Homo sapiens, UniProt Q9BQF6); format: functional;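 also: Luminescence-based dose-response confirmation of ultra-high-throughput screening hits, measuring inhibition of SENP7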
# T3 sequence (Q9BQF6 whole entry): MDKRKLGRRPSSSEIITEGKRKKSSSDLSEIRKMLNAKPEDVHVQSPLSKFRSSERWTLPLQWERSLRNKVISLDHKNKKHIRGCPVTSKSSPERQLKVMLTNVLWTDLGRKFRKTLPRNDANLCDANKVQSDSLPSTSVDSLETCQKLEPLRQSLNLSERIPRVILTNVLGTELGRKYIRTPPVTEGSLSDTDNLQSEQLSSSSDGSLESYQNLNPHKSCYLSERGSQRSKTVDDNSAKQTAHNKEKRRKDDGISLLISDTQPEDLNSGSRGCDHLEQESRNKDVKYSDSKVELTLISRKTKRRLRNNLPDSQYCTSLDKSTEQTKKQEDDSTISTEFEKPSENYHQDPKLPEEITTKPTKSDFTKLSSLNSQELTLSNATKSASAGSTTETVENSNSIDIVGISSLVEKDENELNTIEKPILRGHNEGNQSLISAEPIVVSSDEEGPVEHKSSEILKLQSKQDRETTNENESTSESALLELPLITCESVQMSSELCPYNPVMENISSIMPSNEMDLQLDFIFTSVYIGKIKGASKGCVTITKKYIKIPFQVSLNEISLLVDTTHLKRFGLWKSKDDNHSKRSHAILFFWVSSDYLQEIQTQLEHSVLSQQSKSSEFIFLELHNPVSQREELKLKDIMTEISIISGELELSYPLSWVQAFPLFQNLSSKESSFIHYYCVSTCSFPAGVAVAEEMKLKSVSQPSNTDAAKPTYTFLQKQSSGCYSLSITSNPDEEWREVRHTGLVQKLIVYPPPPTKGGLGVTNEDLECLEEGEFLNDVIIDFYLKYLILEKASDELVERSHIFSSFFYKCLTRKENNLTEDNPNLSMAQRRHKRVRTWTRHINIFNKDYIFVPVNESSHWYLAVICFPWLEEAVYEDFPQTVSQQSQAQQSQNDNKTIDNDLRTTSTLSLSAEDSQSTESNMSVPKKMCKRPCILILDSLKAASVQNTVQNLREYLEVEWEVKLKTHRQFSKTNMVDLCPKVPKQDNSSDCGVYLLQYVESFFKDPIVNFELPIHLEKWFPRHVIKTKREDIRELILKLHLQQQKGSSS
# [6] = molecular target: T4, Sentrin-specific protease 6 (Homo sapiens, UniProt Q9GZR1); format: functional;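 also: Luminescence-based dose-response confirmatory assay of SENP6 inhibition, following up an ultra-high-throughput screen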
# T4 sequence (Q9GZR1 whole entry): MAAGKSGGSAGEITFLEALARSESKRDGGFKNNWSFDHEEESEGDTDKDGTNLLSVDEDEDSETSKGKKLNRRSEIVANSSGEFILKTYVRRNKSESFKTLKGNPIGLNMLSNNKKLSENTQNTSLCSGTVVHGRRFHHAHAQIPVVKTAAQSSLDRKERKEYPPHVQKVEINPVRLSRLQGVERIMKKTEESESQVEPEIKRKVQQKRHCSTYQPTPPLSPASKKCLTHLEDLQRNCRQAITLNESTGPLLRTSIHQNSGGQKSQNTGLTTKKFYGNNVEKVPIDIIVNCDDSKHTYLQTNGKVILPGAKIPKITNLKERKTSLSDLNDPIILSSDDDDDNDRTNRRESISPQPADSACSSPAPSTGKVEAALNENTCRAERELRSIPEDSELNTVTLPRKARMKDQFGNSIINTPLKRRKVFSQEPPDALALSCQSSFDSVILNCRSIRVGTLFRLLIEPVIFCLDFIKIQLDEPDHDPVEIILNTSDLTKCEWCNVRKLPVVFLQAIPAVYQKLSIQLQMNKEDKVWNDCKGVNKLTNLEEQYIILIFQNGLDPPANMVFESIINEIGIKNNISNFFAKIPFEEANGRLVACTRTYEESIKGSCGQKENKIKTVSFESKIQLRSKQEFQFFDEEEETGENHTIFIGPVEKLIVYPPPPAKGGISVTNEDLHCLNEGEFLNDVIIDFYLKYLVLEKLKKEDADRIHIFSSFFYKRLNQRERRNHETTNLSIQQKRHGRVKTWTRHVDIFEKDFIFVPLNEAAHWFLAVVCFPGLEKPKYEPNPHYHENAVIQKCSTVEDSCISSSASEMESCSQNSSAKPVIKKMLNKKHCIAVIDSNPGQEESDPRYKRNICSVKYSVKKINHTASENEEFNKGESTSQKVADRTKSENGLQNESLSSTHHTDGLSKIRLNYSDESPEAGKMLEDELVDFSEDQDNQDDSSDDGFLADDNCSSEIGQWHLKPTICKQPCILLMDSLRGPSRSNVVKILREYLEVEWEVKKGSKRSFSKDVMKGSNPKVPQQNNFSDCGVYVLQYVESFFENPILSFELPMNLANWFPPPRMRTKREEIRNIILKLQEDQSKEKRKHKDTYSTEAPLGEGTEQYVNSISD
# Estrogen receptor = molecular target: T5, Estrogen receptor (Homo sapiens, UniProt P03372);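 also: potency for inhibiting coactivator peptide recruitment to the receptor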
# T5 sequence (P03372 whole entry): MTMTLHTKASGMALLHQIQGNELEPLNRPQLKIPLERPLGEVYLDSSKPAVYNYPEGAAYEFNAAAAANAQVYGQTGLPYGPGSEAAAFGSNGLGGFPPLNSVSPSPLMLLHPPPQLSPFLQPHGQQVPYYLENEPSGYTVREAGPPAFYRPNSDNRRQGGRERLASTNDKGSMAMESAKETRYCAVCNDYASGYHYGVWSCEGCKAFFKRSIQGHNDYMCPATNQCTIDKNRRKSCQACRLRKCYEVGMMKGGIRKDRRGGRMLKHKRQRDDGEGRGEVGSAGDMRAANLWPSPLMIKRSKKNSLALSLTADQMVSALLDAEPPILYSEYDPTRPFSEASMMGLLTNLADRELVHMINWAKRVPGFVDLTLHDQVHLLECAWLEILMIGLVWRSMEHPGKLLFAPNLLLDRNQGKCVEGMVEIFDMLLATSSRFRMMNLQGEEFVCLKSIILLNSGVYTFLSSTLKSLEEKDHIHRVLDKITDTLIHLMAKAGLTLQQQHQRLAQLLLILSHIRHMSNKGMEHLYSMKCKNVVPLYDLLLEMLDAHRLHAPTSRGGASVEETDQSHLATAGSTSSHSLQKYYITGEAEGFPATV
# [7] = molecular target: T6, Carboxy-terminal domain RNA polymerase II polypeptide A small phosphatase 1 (Homo sapiens, UniProt Q9GZU7); test: inhibitors of CTDSP1, concentration-response testing, biochemical assay, absorbance-based, actives from ultra-high-throughput screening (AID 540297); format: functional
# T6 sequence (Q9GZU7 whole entry): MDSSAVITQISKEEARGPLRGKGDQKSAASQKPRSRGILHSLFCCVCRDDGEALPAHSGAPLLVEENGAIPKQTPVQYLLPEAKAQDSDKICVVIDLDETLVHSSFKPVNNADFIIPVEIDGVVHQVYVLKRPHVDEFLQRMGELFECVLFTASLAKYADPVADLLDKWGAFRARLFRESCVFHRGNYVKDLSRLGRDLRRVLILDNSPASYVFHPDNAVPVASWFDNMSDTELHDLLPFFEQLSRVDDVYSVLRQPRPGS
# [8] = molecular target: Intestinal-type alkaline phosphatase (Homo sapiens, UniProt P09923); test: activation of human intestinal alkaline phosphatase – biochemical, dose response (AID 488873); format: functional
# [9] = molecular target: T7, Alkaline phosphatase, tissue-nonspecific isozyme (Homo sapiens, UniProt P05186); test: TNAP enzyme inhibition by screening hits, dose response, selectivity assay for mouse IAP inhibitor project, biochemical, human TNAP, uHTS hits (AID 488906); format: functional
# T7 sequence (P05186 whole entry): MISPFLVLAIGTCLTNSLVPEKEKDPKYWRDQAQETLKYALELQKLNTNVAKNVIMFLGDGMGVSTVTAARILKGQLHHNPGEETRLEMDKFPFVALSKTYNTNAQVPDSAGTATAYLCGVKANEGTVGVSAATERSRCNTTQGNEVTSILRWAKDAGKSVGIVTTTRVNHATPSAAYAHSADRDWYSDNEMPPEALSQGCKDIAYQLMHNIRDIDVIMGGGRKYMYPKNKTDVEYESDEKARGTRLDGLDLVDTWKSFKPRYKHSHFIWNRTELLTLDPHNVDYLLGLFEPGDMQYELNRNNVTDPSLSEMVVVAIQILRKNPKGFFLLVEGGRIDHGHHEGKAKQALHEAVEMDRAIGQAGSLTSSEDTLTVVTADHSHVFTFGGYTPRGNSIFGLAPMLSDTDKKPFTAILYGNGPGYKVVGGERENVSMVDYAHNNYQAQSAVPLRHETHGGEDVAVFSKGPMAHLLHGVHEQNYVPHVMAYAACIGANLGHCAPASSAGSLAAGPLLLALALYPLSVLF
# [10] = molecular target: Intestinal-type alkaline phosphatase (Mus musculus, UniProt P24822); test: PubChem AID 488785; format: functional
# HEK293 [11] = test: cells; format: functional, cell-based; conditions: Homo sapiens
# HEK293 [12] = test: cells; format: functional, cell-based; conditions: Homo sapiens; remark: listed apart in the source
# HEK293 [13] = test: NOD1 signaling inhibitors, primary screen, cell-based, luminescence, uHTS (AID 1578); format: functional; conditions: Homo sapiens
# HEK293 [14] = test: NOD2 signaling inhibitors in MDP-stimulated cells, cell-based, uHTS, luminescence (AID 2001); format: functional; conditions: Homo sapiens
# Sequence of Voltage-dependent T-type calcium channel subunit alpha-1H (O95180 whole entry): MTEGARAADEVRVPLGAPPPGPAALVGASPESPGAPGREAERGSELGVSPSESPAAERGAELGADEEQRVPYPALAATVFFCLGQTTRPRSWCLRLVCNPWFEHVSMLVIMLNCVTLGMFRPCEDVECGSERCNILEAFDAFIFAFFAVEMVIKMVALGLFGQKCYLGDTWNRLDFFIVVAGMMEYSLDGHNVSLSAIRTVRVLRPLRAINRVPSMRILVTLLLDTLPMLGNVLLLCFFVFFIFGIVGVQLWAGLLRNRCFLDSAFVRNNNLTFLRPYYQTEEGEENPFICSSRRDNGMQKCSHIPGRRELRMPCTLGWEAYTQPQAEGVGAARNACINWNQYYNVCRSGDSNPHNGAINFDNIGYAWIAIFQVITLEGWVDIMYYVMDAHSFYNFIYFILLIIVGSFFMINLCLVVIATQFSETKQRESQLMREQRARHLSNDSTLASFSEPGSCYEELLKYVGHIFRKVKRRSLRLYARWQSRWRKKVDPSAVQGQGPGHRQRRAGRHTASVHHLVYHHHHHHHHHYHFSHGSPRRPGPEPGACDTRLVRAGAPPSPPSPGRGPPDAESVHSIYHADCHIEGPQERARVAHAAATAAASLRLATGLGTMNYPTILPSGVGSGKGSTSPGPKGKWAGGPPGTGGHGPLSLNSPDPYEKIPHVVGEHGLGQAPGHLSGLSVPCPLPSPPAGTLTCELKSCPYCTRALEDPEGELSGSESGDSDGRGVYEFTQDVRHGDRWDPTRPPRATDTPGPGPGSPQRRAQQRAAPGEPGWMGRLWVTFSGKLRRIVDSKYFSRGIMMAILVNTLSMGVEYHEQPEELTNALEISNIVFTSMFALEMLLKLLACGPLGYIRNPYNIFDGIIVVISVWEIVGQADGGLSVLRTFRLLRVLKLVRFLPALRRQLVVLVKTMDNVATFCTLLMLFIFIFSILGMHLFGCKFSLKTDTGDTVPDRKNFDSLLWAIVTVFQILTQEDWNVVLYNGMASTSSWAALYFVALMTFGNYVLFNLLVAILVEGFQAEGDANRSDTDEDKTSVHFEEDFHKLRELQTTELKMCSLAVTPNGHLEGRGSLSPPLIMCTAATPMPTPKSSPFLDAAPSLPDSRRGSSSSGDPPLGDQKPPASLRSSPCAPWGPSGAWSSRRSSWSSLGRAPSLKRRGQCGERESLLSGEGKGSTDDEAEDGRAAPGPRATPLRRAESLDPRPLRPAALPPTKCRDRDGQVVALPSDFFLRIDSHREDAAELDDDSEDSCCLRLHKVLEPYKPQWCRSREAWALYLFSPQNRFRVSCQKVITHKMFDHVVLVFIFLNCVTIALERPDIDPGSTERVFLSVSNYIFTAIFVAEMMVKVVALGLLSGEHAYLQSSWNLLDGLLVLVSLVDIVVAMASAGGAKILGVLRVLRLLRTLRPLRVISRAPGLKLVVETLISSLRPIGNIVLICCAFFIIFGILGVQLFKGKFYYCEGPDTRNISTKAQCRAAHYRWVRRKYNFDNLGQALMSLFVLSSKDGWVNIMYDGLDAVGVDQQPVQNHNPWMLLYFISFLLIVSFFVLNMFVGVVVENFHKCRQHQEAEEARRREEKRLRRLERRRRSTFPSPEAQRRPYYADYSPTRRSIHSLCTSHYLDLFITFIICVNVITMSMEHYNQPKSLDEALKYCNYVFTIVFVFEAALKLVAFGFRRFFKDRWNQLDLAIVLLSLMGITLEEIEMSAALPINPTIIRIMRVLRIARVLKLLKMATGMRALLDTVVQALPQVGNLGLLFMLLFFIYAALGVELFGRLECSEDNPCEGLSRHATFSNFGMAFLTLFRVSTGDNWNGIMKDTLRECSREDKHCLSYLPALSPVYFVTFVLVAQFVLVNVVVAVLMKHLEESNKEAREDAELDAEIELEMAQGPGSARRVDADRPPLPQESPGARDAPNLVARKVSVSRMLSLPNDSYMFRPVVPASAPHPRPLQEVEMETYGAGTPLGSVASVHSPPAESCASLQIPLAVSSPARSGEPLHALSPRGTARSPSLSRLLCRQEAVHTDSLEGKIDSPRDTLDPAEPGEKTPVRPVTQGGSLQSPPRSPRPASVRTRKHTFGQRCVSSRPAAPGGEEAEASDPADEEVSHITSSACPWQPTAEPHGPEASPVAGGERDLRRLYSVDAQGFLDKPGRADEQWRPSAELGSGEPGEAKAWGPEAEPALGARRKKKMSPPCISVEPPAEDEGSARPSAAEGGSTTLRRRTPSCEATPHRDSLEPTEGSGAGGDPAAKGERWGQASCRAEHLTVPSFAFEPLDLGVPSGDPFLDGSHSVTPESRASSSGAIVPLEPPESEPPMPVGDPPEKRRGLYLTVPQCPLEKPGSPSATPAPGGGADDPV
# Sequence of Intestinal-type alkaline phosphatase (Homo sapiens, UniProt P09923) (P09923 whole entry): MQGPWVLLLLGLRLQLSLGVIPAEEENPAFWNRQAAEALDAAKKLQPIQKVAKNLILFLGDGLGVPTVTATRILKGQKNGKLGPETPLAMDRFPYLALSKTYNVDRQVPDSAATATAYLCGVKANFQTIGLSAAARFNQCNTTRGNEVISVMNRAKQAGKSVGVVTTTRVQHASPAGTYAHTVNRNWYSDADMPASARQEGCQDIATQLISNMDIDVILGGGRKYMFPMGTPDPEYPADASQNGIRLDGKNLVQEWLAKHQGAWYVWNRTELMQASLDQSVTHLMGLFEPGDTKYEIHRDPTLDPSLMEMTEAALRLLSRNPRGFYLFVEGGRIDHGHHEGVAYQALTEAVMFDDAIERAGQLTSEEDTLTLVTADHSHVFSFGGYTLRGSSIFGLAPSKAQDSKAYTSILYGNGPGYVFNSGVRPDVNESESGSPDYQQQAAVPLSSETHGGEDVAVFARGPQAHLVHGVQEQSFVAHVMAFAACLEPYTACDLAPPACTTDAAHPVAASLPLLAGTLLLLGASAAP
# Sequence of Intestinal-type alkaline phosphatase (Mus musculus, UniProt P24822) (P24822 whole entry): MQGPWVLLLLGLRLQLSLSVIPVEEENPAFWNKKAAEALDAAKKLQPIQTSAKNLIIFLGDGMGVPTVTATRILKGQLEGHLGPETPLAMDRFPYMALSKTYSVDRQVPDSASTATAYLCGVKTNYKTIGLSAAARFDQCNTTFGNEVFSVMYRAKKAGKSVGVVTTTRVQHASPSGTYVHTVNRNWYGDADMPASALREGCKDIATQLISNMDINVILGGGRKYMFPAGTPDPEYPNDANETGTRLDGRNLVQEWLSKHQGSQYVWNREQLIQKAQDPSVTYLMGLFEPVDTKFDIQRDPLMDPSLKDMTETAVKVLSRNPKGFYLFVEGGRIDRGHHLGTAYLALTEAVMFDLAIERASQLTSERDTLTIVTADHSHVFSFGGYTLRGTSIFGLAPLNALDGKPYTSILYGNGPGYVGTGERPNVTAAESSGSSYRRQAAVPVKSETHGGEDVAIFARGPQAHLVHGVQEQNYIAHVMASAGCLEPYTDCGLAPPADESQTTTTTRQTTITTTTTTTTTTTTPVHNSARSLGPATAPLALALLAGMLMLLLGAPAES
compound,measurement,setting,value
COc1ccc(NCc2nnc(SCC(=O)Nc3nc(-c4ccccc4)cs3)n2-c2ccccc2)cc1,EC50,[1],2.54 µM (active)
same,CC50,Vero,8.35 µM (active)
same,EC50,[2],2.78 µM (active)
same,AC50,INS1,6.62 µM (active)
CCn1c(CNc2ccc(Cl)cc2)nnc1SCC(=O)OC1CCCCC1,EC50,[3],2.56 µM (active)
O=C(Nc1ccc2ccccc2c1)c1cccc(F)c1,IC50,[4],> 100 µM (inactive)
same,IC50,Caspase-3,18.3 µM (active)
same,IC50,[5],4.43 µM (active)
same,IC50,[6],5.72 µM (active)
Cc1ccccc1CSCC(=O)NC(=O)NCc1ccco1,IC50,Estrogen receptor,9.27 µM (active)
same,IC50,[7],10.4 µM (active)
COc1ccccc1CNC(=O)CCNS(=O)(=O)c1ccc2[nH]c(=O)oc2c1,EC50,[8],45.1 µM (active)
same,IC50,[9],27.5 µM (active)
same,IC50,[10],11.4 µM (active)
Cc1ccc(S(=O)(=O)Nc2ccc3nc(-c4cccn4C)[nH]c3c2)cc1,EC50,[3],5.6 µM (active)
COc1cccc(CNC(=O)CSCc2cnn(-c3ccccc3)c2-n2cccc2)c1,EC50,[3],3.66 µM (active)
FC(F)(F)c1cc(C(F)(F)F)c2ccc(Oc3ccccc3)nc2n1,EC50,[3],4.65 µM (active)
Cc1cc(N2CCC(C(=O)Nc3ccc(F)cc3)CC2)nc(-c2ccccc2)n1,EC50,[3],4.26 µM (active)
CCCCCC(=O)N1C[C@H](O)[C@@H](n2cc(-c3ccc(F)cc3)nn2)C[C@@H]1c1ccc(Cl)cc1,CC50,Vero,> 25 µM (active)
COC(=O)c1scc(S(=O)(=O)C(C)C)c1N/N=C(\C#N)C(=O)c1ccc(Cl)cc1,IC50,HEK293 [11],> 20 µM (inactive)
same,IC50,HEK293 [12],> 20 µM (inactive)
same,EC50,HEK293 [13],2.17 µM (active)
same,IC50,HEK293 [14],> 20 µM (inactive)
